Results taken from PubChem BioAssay AID192 (DTP/NCI, 2004).
Several values for one entry are separate records, joined by “and”; a condition that tells them apart may be missing. Identical values can stand only once. Toxic doses and inconclusive results are not listed. The calls were made as follows: active = survival T/C of 150% or more; inactive = T/C below 125% in these data.

Tested on: BDF1 mice, B16 melanoma ip, median survival T/C
Assay: NCI In Vivo Anticancer Drug Screen. Data for tumor model B16 Melanoma (intraperitoneal) in B6D2F1 (BDF1) mice
Conditions: endpoint: median survival time, higher = longer survival
How it was run: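 Values are ratios of treated (T) to vehicle-control (C) measurements of survival or tumor size in tumor-bearing mice.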

[1] = dose: 12.5 mg/kg/injection, schedule: Q01DX009 (ip), vehicle: saline with Tween-80
[2] = dose: 25.0 mg/kg/injection, schedule: Q01DX009 (ip), vehicle: saline with Tween-80
[3] = dose: 50.0 mg/kg/injection, schedule: Q01DX009 (ip), vehicle: saline with Tween-80
[4] = dose: 100.0 mg/kg/injection, schedule: Q01DX009 (ip), vehicle: saline with Tween-80
[5] = dose: 200.0 mg/kg/injection, schedule: Q01DX009 (ip), vehicle: saline with Tween-80
[6] = dose: 400.0 mg/kg/injection, schedule: Q01DX009 (ip), vehicle: saline with Tween-80
[7] = dose: 25.0 mg/kg/injection, schedule: Q01DX009 (ip), vehicle: Klucel (hydroxypropylcellulose) (HPC)
[8] = dose: 50.0 mg/kg/injection, schedule: Q01DX009 (ip), vehicle: Klucel (hydroxypropylcellulose) (HPC)
[9] = dose: 100.0 mg/kg/injection, schedule: Q01DX009 (ip), vehicle: Klucel (hydroxypropylcellulose) (HPC)
[10] = dose: 200.0 mg/kg/injection, schedule: Q01DX009 (ip), vehicle: Klucel (hydroxypropylcellulose) (HPC)
[11] = dose: 400.0 mg/kg/injection, schedule: Q01DX009 (ip), vehicle: Klucel (hydroxypropylcellulose) (HPC)
[12] = dose: 100.0 mg/kg/injection, schedule: Q04DX003 (ip), vehicle: Klucel (hydroxypropylcellulose) (HPC)
[13] = dose: 200.0 mg/kg/injection, schedule: Q04DX003 (ip), vehicle: Klucel (hydroxypropylcellulose) (HPC)
[14] = dose: 400.0 mg/kg/injection, schedule: Q04DX003 (ip), vehicle: Klucel (hydroxypropylcellulose) (HPC)
[15] = dose: 66.0 mg/kg/injection, schedule: Q01DX009 (ip), vehicle: saline with Tween-80
[16] = dose: 50.0 mg/kg/injection, schedule: Q01DX009 (ip), vehicle: saline
[17] = dose: 100.0 mg/kg/injection, schedule: Q01DX009 (ip), vehicle: saline
[18] = dose: 25.0 mg/kg/injection, schedule: Q01DX009 (ip), vehicle: saline

Measured: T/C

Cn1ccc(=Nc2ccc(NC(=O)c3ccc(N=c4ccn(C)c5ccc([N+](=O)[O-])cc45)cc3[N+](=O)[O-])cc2)cc1
inactive: [1] 96 % of control | [2] 97 % of control | [3] 97 % of control | [4] 105 % of control | [5] 97 % of control | [6] 91 % of control

Cc1ccc(NC(=O)c2ccc(Cl)cc2)c(C)c1
inactive: dose: 75.0 mg/kg/injection, schedule: Q01DX009 (ip), vehicle: Klucel (hydroxypropylcellulose) (HPC) 93 % of control | dose: 150.0 mg/kg/injection, schedule: Q01DX009 (ip), vehicle: Klucel (hydroxypropylcellulose) (HPC) 91 % of control | dose: 300.0 mg/kg/injection, schedule: Q01DX009 (ip), vehicle: Klucel (hydroxypropylcellulose) (HPC) 88 % of control

CC(=O)Nc1ccc(/C=N/NC(N)=S)cc1
inactive: [7] 102 % of control | [2] 108 % of control | [8] 100 % of control | [3] 105 % of control | [9] 102 % of control | [4] 100 % of control | [10] 105 % of control | [5] 98 % of control | [11] 100 % of control | [6] 95 % of control

S=C(Nc1ccccn1)Nc1ccccn1
inactive: [7] 97 % of control | [8] 104 % of control | [9] 111 % of control

COc1ccc(/C=C/c2nc3ccccc3nc2/C=C/c2ccc(OC)c(OC)c2)cc1OC
inactive: dose: 6.25 mg/kg/injection, schedule: Q01DX009 (ip), vehicle: carboxymethylcellulose (CMC) 99 % of control | dose: 12.5 mg/kg/injection, schedule: Q01DX009 (ip), vehicle: carboxymethylcellulose (CMC) 92 % of control | dose: 25.0 mg/kg/injection, schedule: Q01DX009 (ip), vehicle: carboxymethylcellulose (CMC) 89 % of control

S=C(Cc1ccccc1)N1CCN(c2ccc(Cl)cc2)CC1
inactive: [3] 100 % of control | [4] 99 % of control | [5] 93 % of control

CCCC1CC[N-]CC1.CCCC1CC[N-]CC1.CCCC1CC[N-]CC1.CCCC1CC[N-]CC1.[Cl][Rh][Cl]
inactive: dose: 0.37 mg/kg/injection, schedule: Q01DX009 (ip), vehicle: Klucel (hydroxypropylcellulose) (HPC) 104 % of control | dose: 0.75 mg/kg/injection, schedule: Q01DX009 (ip), vehicle: Klucel (hydroxypropylcellulose) (HPC) 102 % of control | dose: 1.5 mg/kg/injection, schedule: Q01DX009 (ip), vehicle: Klucel (hydroxypropylcellulose) (HPC) 100 % of control | dose: 1.56 mg/kg/injection, schedule: Q01DX009 (ip), vehicle: saline with Tween-80 109 % of control | dose: 3.13 mg/kg/injection, schedule: Q01DX009 (ip), vehicle: saline with Tween-80 116 % of control | dose: 6.25 mg/kg/injection, schedule: Q01DX009 (ip), vehicle: saline with Tween-80 98 % of control

CCN(C(=O)c1ccc(C(=O)N(CC)c2ccccc2)cc1)c1ccccc1
inactive: [8] 119 % of control | [9] 114 % of control | [10] 111 % of control

NC(Cc1ccc(Cl)cc1)C(=O)O (stereo not given)
inactive: [4] 123 % of control | [5] 115 % of control | [6] 104 % of control

CC(=O)Nc1ccc(OC(=O)Nc2ccccc2Cl)cc1
inactive: [12] 93 % of control | [13] 113 % of control | [14] 106 % of control

CCOC(=O)/C(Cc1cc[n+]([O-])c2ccccc12)=N/O
inactive: [12] 88 % of control | [13] 97 % of control | [14] 88 % of control

COC1=C2CC(C)CC(OC)C(O)C(C)/C=C(\C)C(OC(N)=O)C(OC)/C=C\C=C(/C)C(=O)NC(=C(/C=N/N(C)C)C1=O)C2=O (stereo not given)
inactive: dose: 12.5 mg/kg/injection, schedule: Q01DX005 (ip), vehicle: other 101 % of control | dose: 25.0 mg/kg/injection, schedule: Q01DX005 (ip), vehicle: other 101 % of control | dose: 50.0 mg/kg/injection, schedule: Q01DX005 (ip), vehicle: other 101 % of control | dose: 100.0 mg/kg/injection, schedule: Q01DX005 (ip), vehicle: other 97 % of control | dose: 200.0 mg/kg/injection, schedule: Q01DX005 (ip), vehicle: other 96 % of control

CN1CCN(CCNc2ccc(CO)c3sc4ccccc4c(=O)c23)CC1
inactive: [7] 110 % of control | [8] 116 % of control

O=C(CC(NC(=O)OCc1ccccc1)c1nn[nH]n1)OCc1ccccc1 (stereo not given)
inactive: [15] 99 % of control | [4] 107 % of control | dose: 150.0 mg/kg/injection, schedule: Q01DX009 (ip), vehicle: saline with Tween-80 100 % of control

Nc1nncs1
inactive: dose: 8.0 mg/kg/injection, schedule: Q01DX009 (ip), vehicle: saline 104 % of control | dose: 16.0 mg/kg/injection, schedule: Q01DX009 (ip), vehicle: other 111 % of control | dose: 16.0 mg/kg/injection, schedule: Q01DX009 (ip), vehicle: saline 99 % of control | dose: 32.0 mg/kg/injection, schedule: Q01DX009 (ip), vehicle: other 106 % of control | dose: 32.0 mg/kg/injection, schedule: Q01DX009 (ip), vehicle: saline 105 % of control | dose: 64.0 mg/kg/injection, schedule: Q01DX009 (ip), vehicle: other 104 % of control

CCN(CC)CCOC(=O)CC1CCCCC1
inactive: [16] 99 % of control | [17] 96 % of control | dose: 200.0 mg/kg/injection, schedule: Q01DX009 (ip), vehicle: saline 95 % of control

c1ccc(N/N=C2/c3ccccc3CC23OC3c2ccccc2)cc1 (stereo not given)
inactive: [8] 87 % of control | [9] 96 % of control | [11] 89 % of control

C=CC(CO)N1CC1 (stereo not given)
inactive: dose: 1.0 mg/kg/injection, schedule: Q01DX009 (ip), vehicle: other 119 % of control | dose: 2.0 mg/kg/injection, schedule: Q01DX009 (ip), vehicle: other 116 % of control | dose: 4.0 mg/kg/injection, schedule: Q01DX009 (ip), vehicle: other 111 % of control | dose: 6.25 mg/kg/injection, schedule: Q04DX003 (ip), vehicle: other 100 % of control | dose: 8.0 mg/kg/injection, schedule: Q01DX009 (ip), vehicle: other 113 % of control | dose: 12.5 mg/kg/injection, schedule: Q04DX003 (ip), vehicle: other 100 % of control | dose: 25.0 mg/kg/injection, schedule: Q04DX003 (ip), vehicle: other 96 % of control | dose: 50.0 mg/kg/injection, schedule: Q04DX003 (ip), vehicle: other 109 % of control

CCCCCCC(=O)CCCC
inactive: dose: 100.0 mg/kg/injection, schedule: Q01DX009 (ip), vehicle: other 98 % of control | dose: 200.0 mg/kg/injection, schedule: Q01DX009 (ip), vehicle: other 100 % of control

Cc1cc(Cl)ccc1NC(=O)c1ccccc1
inactive: [9] 103 % of control | [10] 99 % of control | [11] 100 % of control

NCCC(O)C(=O)NC1CC(N)C(OC2OC(CO)C(O)C(O)C2N)C(OC2OC(CO)C(O)C2O)C1O (stereo not given)
inactive: dose: 10.0 mg/kg/injection, schedule: Q01DX009 (ip), vehicle: saline 122 % of control | dose: 20.0 mg/kg/injection, schedule: Q01DX009 (ip), vehicle: saline 124 % of control

C=CCC(C(C)=O)C(=O)OCC (stereo not given)
inactive: [9] 106 % of control | [10] 110 % of control | [11] 110 % of control

CCCCCCC(=O)/C=C/c1cccc(OCOCC)c1
inactive: [1] 99 % of control | [2] 94 % of control | [3] 102 % of control | [4] 98 % of control

N=C(N)c1ccc(OCCCOc2ccc(C(=N)N)cc2Br)c(Br)c1
inactive: dose: 6.25 mg/kg/injection, schedule: Q01DX009 (ip), vehicle: saline 97 % of control and 114 % of control | dose: 12.5 mg/kg/injection, schedule: Q01DX009 (ip), vehicle: saline 97 % of control and 111 % of control | [18] 97 % of control and 111 % of control

CCCCOc1ccc(NC(=O)CCl)cc1
inactive: [1] 99 % of control | [2] 100 % of control | [3] 99 % of control

CC(=O)CC(C)=O.CC(=O)CC(C)=O.O=N[O-].O=N[O-].[Co]
inactive: [1] 96 % of control | [2] 103 % of control | [3] 91 % of control

C(=C\c1cccnc1)/c1ccncc1
inactive: [15] 96 % of control | [4] 93 % of control

CCN(C(=O)Nc1ccc(OC)cc1)c1ccccc1C
inactive: [12] 102 % of control | [13] 102 % of control | [14] 102 % of control

CC(=O)C1=C(C)NC(C)=C(C(C)=O)C1c1cccc([N+](=O)[O-])c1
inactive: [2] 94 % of control | [3] 94 % of control | [4] 97 % of control

C=CCc1ccccc1OC
inactive: [18] 116 % of control | [16] 109 % of control | [17] 106 % of control
